Assay results taken from article PMC5218480 (PLoS ONE, 2017).

System: MV-4-11 cells
Test: Gene expression microarray analysis (Affymetrix PrimeView) and GSEA
Format: cell-based, human
Parameters: RFU PODN (11730768_x_at) / Fold change /veh PODN (11730768_x_at) / RFU LINC00158 (11744669_a_at) / Fold change /veh LINC00158 (11744669_a_at) / RFU DUSP10 (11751237_a_at) / Fold change /veh DUSP10 (11751237_a_at) / RFU ID3 (11757404_x_at) / Fold change /veh ID3 (11757404_x_at) / RFU PLEKHG5 (11737974_s_at) / Fold change /veh PLEKHG5 (11737974_s_at) / RFU LRRC4B (11730491_at) / Fold change /veh LRRC4B (11730491_at) / RFU GIMAP4 (11747438_a_at) / Fold change /veh GIMAP4 (11747438_a_at) / RFU KRT8 (11758183_x_at) / Fold change /veh KRT8 (11758183_x_at) / RFU CNN1 (11734310_a_at) / Fold change /veh CNN1 (11734310_a_at) / RFU VPS37D (11726825_at) / Fold change /veh VPS37D (11726825_at) / RFU C10orf10 (11716522_x_at) / Fold change /veh C10orf10 (11716522_x_at) / RFU KIR2DL2 /// KIR2DL4 /// KIR2DL5A /// KIR2DL5B /// KIR2DS1 /// KIR2DS2 /// KIR2DS3 /// KIR2DS4 /// KIR3DL3 /// KIR3DL3 /// KIR3DS1 (11738374_at) / Fold change /veh KIR2DL2 /// KIR2DL4 /// KIR2DL5A /// KIR2DL5B /// KIR2DS1 /// KIR2DS2 /// KIR2DS3 /// KIR2DS4 /// KIR3DL3 /// KIR3DL3 /// KIR3DS1 (11738374_at) / RFU C1QL1 (11718748_at) / Fold change /veh C1QL1 (11718748_at) / RFU TMPRSS4 (11747572_a_at) / Fold change /veh TMPRSS4 (11747572_a_at) / RFU HAMP (11756126_x_at) / Fold change /veh HAMP (11756126_x_at) / RFU RNFT2 (11725882_a_at) / Fold change /veh RNFT2 (11725882_a_at) / RFU NR4A2 (11747474_a_at) / Fold change /veh NR4A2 (11747474_a_at) / RFU ABCC12 (11746883_a_at) / Fold change /veh ABCC12 (11746883_a_at) / RFU TMEM136 (11760407_x_at) / Fold change /veh TMEM136 (11760407_x_at) / RFU CLDN22 /// WWC2 (11732394_at) / Fold change /veh CLDN22 /// WWC2 (11732394_at) / RFU HLA-DPB1 (11760878_x_at) / Fold change /veh HLA-DPB1 (11760878_x_at) / RFU SPINT1 (11716480_a_at) / Fold change /veh SPINT1 (11716480_a_at) / RFU GAP43 (11754022_s_at) / Fold change /veh GAP43 (11754022_s_at) / RFU A4GNT (11735810_at) / Fold change /veh A4GNT (11735810_at) / RFU PRB3 (11715151_x_at) / Fold change /veh PRB3 (11715151_x_at) / RFU TUBB4B (11761932_at) / Fold change /veh TUBB4B (11761932_at) / RFU CAPN14 (11732068_a_at) / Fold change /veh CAPN14 (11732068_a_at) / RFU TMCC2 (11721928_a_at) / Fold change /veh TMCC2 (11721928_a_at) / RFU IRGQ (11745062_a_at) / Fold change /veh IRGQ (11745062_a_at) / RFU FAM174B (11720279_a_at) / Fold change /veh FAM174B (11720279_a_at) / RFU TMPRSS4 (11748680_a_at) / Fold change /veh TMPRSS4 (11748680_a_at) / RFU FAM212B (11763350_a_at) / Fold change /veh FAM212B (11763350_a_at) / RFU PLEKHG5 (11743358_a_at) / Fold change /veh PLEKHG5 (11743358_a_at) / RFU ZSCAN30 (11745921_a_at) / Fold change /veh ZSCAN30 (11745921_a_at) / RFU CMKLR1 (11741424_a_at) / Fold change /veh CMKLR1 (11741424_a_at) / RFU LOC101060620 /// MAPK8IP1 (11723275_at) / Fold change /veh LOC101060620 /// MAPK8IP1 (11723275_at) / RFU SPTSSB (11747773_x_at) / Fold change /veh SPTSSB (11747773_x_at) / RFU PRSS12 (11739890_at) / Fold change /veh PRSS12 (11739890_at) / RFU BIN1 (11741810_x_at) / Fold change /veh BIN1 (11741810_x_at) / RFU WNT11 (11732464_a_at) / Fold change /veh WNT11 (11732464_a_at) / RFU C10orf10 (11716521_a_at) / Fold change /veh C10orf10 (11716521_a_at) / RFU C5orf56 (11738089_at) / Fold change /veh C5orf56 (11738089_at) / RFU CYB561 (11721691_x_at) / Fold change /veh CYB561 (11721691_x_at) / RFU ANKRD19P (11752326_a_at) / Fold change /veh ANKRD19P (11752326_a_at) / RFU OR2T12 /// OR2T33 /// OR2T8 (11738714_s_at) / Fold change /veh OR2T12 /// OR2T33 /// OR2T8 (11738714_s_at) / RFU VCAN (11748164_a_at) / Fold change /veh VCAN (11748164_a_at) / RFU JSRP1 (11732532_at) / Fold change /veh JSRP1 (11732532_at) / RFU KRTAP10-11 (11738290_x_at) / Fold change /veh KRTAP10-11 (11738290_x_at) / RFU MYO3A (11730013_a_at) / Fold change /veh MYO3A (11730013_a_at) / RFU EBF3 (11725865_a_at) / Fold change /veh EBF3 (11725865_a_at) / RFU CAMK2N1 (11719241_x_at) / Fold change /veh CAMK2N1 (11719241_x_at) / RFU C5orf56 (11738088_a_at) / Fold change /veh C5orf56 (11738088_a_at) / RFU OLFML3 (11715873_a_at) / Fold change /veh OLFML3 (11715873_a_at) / RFU LOC100653217 /// NTM (11731650_a_at) / Fold change /veh LOC100653217 /// NTM (11731650_a_at) / RFU MAPK11 (11762145_a_at) / Fold change /veh MAPK11 (11762145_a_at) / RFU FIZ1 (11724087_x_at) / Fold change /veh FIZ1 (11724087_x_at) / RFU OASL (11726364_x_at) / Fold change /veh OASL (11726364_x_at) / RFU SOX15 (11748057_x_at) / Fold change /veh SOX15 (11748057_x_at) / RFU CD79A (11719716_a_at) / Fold change /veh CD79A (11719716_a_at) / RFU HIST1H1D (11736915_at) / Fold change /veh HIST1H1D (11736915_at) / RFU CASKIN2 (11723855_a_at) / Fold change /veh CASKIN2 (11723855_a_at) / RFU LOC730098 (11760151_x_at) / Fold change /veh LOC730098 (11760151_x_at) / RFU OR4N2 (11742367_at) / Fold change /veh OR4N2 (11742367_at) / RFU PRRT2 (11749266_a_at) / Fold change /veh PRRT2 (11749266_a_at) / RFU SNX32 (11753110_a_at) / Fold change /veh SNX32 (11753110_a_at) / RFU CDHR5 (11726645_a_at) / Fold change /veh CDHR5 (11726645_a_at) / RFU RCAN1 (11760418_a_at) / Fold change /veh RCAN1 (11760418_a_at) / RFU FAM167A (11723789_a_at) / Fold change /veh FAM167A (11723789_a_at) / RFU FAM26E (11764081_at) / Fold change /veh FAM26E (11764081_at) / RFU ISYNA1 (11749810_s_at) / Fold change /veh ISYNA1 (11749810_s_at) / RFU ACY1 (11761880_at) / Fold change /veh ACY1 (11761880_at) / RFU 11764098_at / Fold change /veh 11764098_at / RFU SAMD14 (11745864_x_at) / Fold change /veh SAMD14 (11745864_x_at) / RFU NPB (11741838_a_at) / Fold change /veh NPB (11741838_a_at) / RFU TMPRSS6 (11731388_a_at) / Fold change /veh TMPRSS6 (11731388_a_at) / RFU KRTAP10-2 (11738614_at) / Fold change /veh KRTAP10-2 (11738614_at) / RFU ARHGAP8 /// PRR5-ARHGAP8 (11727945_x_at) / Fold change /veh ARHGAP8 /// PRR5-ARHGAP8 (11727945_x_at) / RFU KRTAP5-7 /// NADSYN1 (11734609_at) / Fold change /veh KRTAP5-7 /// NADSYN1 (11734609_at) / RFU RASL12 (11751679_a_at) / Fold change /veh RASL12 (11751679_a_at) / RFU CDKN2B (11736163_a_at) / Fold change /veh CDKN2B (11736163_a_at) / RFU PRF1 (11729649_at) / Fold change /veh PRF1 (11729649_at) / RFU, ZNF638 /// ZNF638-IT1 / Fold change vs veh, ZNF638 /// ZNF638-IT1 / RFU, PANK3 / Fold change vs veh, PANK3 / RFU, SH3YL1 / Fold change vs veh, SH3YL1 / RFU, ZEB2 / Fold change vs veh, ZEB2 / RFU, NRIP1 / Fold change vs veh, NRIP1 / RFU, PTTG1IP / Fold change vs veh, PTTG1IP / RFU, CAPN2 / Fold change vs veh, CAPN2 / RFU, MED14 / Fold change vs veh, MED14 / RFU, SNORA58 / Fold change vs veh, SNORA58 / RFU, C1orf63 / Fold change vs veh, C1orf63 / RFU, LRRFIP1 / Fold change vs veh, LRRFIP1 / RFU, NDUFAF7 / Fold change vs veh, NDUFAF7 / RFU, SLC12A2 / Fold change vs veh, SLC12A2 / RFU, IBTK / Fold change vs veh, IBTK / RFU, ESF1 / Fold change vs veh, ESF1 / Fold change vs veh, TMEM50B / RFU, TAOK1 / Fold change vs veh, TAOK1 / RFU, ACBD3 / Fold change vs veh, ACBD3 / RFU, TMA16 / Fold change vs veh, TMA16 / RFU, RWDD3 / Fold change vs veh, RWDD3 / RFU, BCAT1 / Fold change vs veh, BCAT1 / RFU, EDEM3 / Fold change vs veh, EDEM3 / RFU, TMEM33 / Fold change vs veh, TMEM33 / RFU, WDR75 / Fold change vs veh, WDR75 / RFU, AHCTF1 / Fold change vs veh, AHCTF1 / RFU, TFRC / Fold change vs veh, TFRC / RFU, ZDHHC17 / Fold change vs veh, ZDHHC17 / RFU, NOM1 / Fold change vs veh, NOM1 / RFU, ARL8B / Fold change vs veh, ARL8B / RFU, ZBTB11 / Fold change vs veh, ZBTB11 / RFU, TAMM41 / Fold change vs veh, TAMM41 / RFU, KIAA1704 /// LOC100996395 / Fold change vs veh, KIAA1704 /// LOC100996395 / RFU, ING1 / Fold change vs veh, ING1 / RFU, TRMT61B / Fold change vs veh, TRMT61B / RFU, FUBP3 / Fold change vs veh, FUBP3 / RFU, TP53 / Fold change vs veh, TP53 / RFU, TNKS2 / Fold change vs veh, TNKS2 / RFU, ZFP14 / Fold change vs veh, ZFP14 / RFU, ACTR2 / Fold change vs veh, ACTR2 / RFU, PPP3R1 / Fold change vs veh, PPP3R1 / RFU, PIK3R1 / Fold change vs veh, PIK3R1 / RFU, HNRNPA1 / Fold change vs veh, HNRNPA1 / RFU, RNF170 / Fold change vs veh, RNF170 / RFU, ZNF28 / Fold change vs veh, ZNF28 / RFU, RNGTT / Fold change vs veh, RNGTT / RFU, OGT / Fold change vs veh, OGT / RFU, BRD1 / Fold change vs veh, BRD1 / RFU, MARS / Fold change vs veh, MARS / RFU, ZNF655 / Fold change vs veh, ZNF655 / RFU, FAHD1 / Fold change vs veh, FAHD1 / RFU, BDP1 / Fold change vs veh, BDP1 / RFU, LRRCC1 / Fold change vs veh, LRRCC1 / RFU, ARID1A / Fold change vs veh, ARID1A / RFU, ZNF146 / Fold change vs veh, ZNF146 / RFU, ZNF330 / Fold change vs veh, ZNF330 / RFU, GPN3 / Fold change vs veh, GPN3 / RFU, C9orf123 / Fold change vs veh, C9orf123 / RFU, N4BP2L2 / Fold change vs veh, N4BP2L2 / RFU, ARFIP1 / Fold change vs veh, ARFIP1 / RFU, FAM179B / Fold change vs veh, FAM179B / RFU, BCL10 / Fold change vs veh, BCL10 / RFU, UHRF1BP1L / Fold change vs veh, UHRF1BP1L / RFU, BET1 / Fold change vs veh, BET1 / RFU, CNOT2 / Fold change vs veh, CNOT2 / RFU, ZNF268 / Fold change vs veh, ZNF268 / Fold change vs veh, ZNF507 / RFU, DGCR2 / Fold change vs veh, DGCR2 / RFU, WDSUB1 / Fold change vs veh, WDSUB1 / Fold change vs veh, HSP90B1 /// MIR3652 / RFU, ADSS / Fold change vs veh, ADSS / RFU, GK / Fold change vs veh, GK / RFU, ZNF148 / Fold change vs veh, ZNF148 / RFU, TAF9 / Fold change vs veh, TAF9 / RFU, SLC1A5 / Fold change vs veh, SLC1A5 / RFU, SLMO2 / Fold change vs veh, SLMO2 / RFU, ABCC4 / Fold change vs veh, ABCC4 / RFU, LOC101060439 /// RAP1B / Fold change vs veh, LOC101060439 /// RAP1B / RFU, RFX7 / Fold change vs veh, RFX7 / RFU, GTPBP10 / Fold change vs veh, GTPBP10 / RFU, CNEP1R1 / Fold change vs veh, CNEP1R1 / RFU, BIVM-ERCC5 /// ERCC5 / Fold change vs veh, BIVM-ERCC5 /// ERCC5 / RFU, ILF3 / Fold change vs veh, ILF3 / RFU 11762660_at / Fold change /veh 11762660_at / RFU VCAN (11757783_s_at) / Fold change /veh VCAN (11757783_s_at) / RFU DDX43 (11728927_at) / Fold change /veh DDX43 (11728927_at) / RFU KRT8 (11758188_x_at) / Fold change /veh KRT8 (11758188_x_at) / RFU NKD1 (11759106_at) / Fold change /veh NKD1 (11759106_at) / RFU SRD5A1 (11742802_a_at) / Fold change /veh SRD5A1 (11742802_a_at) / RFU TPSAB1 /// TPSB2 (11721975_s_at) / Fold change /veh TPSAB1 /// TPSB2 (11721975_s_at) / RFU GSTM3 (11746129_a_at) / Fold change /veh GSTM3 (11746129_a_at) / RFU IL23R (11737362_x_at) / Fold change /veh IL23R (11737362_x_at) / RFU TMEM51 (11727254_a_at) / Fold change /veh TMEM51 (11727254_a_at) / RFU PIWIL2 (11732686_x_at) / Fold change /veh PIWIL2 (11732686_x_at) / RFU ORM1 (11744905_x_at) / Fold change /veh ORM1 (11744905_x_at) / RFU CCDC152 (11743942_at) / Fold change /veh CCDC152 (11743942_at) / RFU ECM1 (11717891_a_at) / Fold change /veh ECM1 (11717891_a_at) / RFU IL23R (11748794_a_at) / Fold change /veh IL23R (11748794_a_at) / RFU TNFAIP8L3 (11732012_x_at) / Fold change /veh TNFAIP8L3 (11732012_x_at) / RFU MBOAT4 (11741988_at) / Fold change /veh MBOAT4 (11741988_at) / RFU 11764193_at / Fold change /veh 11764193_at / RFU TMEM53 (11763286_at) / Fold change /veh TMEM53 (11763286_at) / RFU MAGEB2 (11727129_at) / Fold change /veh MAGEB2 (11727129_at) / RFU TMEM200A (11744735_a_at) / Fold change /veh TMEM200A (11744735_a_at) / RFU CCDC152 (11751479_a_at) / Fold change /veh CCDC152 (11751479_a_at) / RFU FAM211A (11726209_a_at) / Fold change /veh FAM211A (11726209_a_at) / RFU RGS16 (11746705_a_at) / Fold change /veh RGS16 (11746705_a_at) / RFU VCAN (11755009_s_at) / Fold change /veh VCAN (11755009_s_at) / RFU RHOB (11743442_s_at) / Fold change /veh RHOB (11743442_s_at) / RFU RGS16 (11720943_a_at) / Fold change /veh RGS16 (11720943_a_at) / RFU RGS16 (11720944_at) / Fold change /veh RGS16 (11720944_at) / RFU, VPS4B / Fold change vs veh, VPS4B / RFU, CREB1 / Fold change vs veh, CREB1 / RFU, DNAJC13 / Fold change vs veh, DNAJC13 / RFU, GNAQ / Fold change vs veh, GNAQ / RFU, CDK5R1 / Fold change vs veh, CDK5R1 / RFU, ZRANB3 / Fold change vs veh, ZRANB3 / RFU, CUL4A / Fold change vs veh, CUL4A / RFU, CCNY / Fold change vs veh, CCNY / RFU, UFL1 / Fold change vs veh, UFL1 / RFU, COG3 / Fold change vs veh, COG3 / RFU, DIAPH2 / Fold change vs veh, DIAPH2 / RFU, SKA2 / Fold change vs veh, SKA2 / RFU, AFF3 / Fold change vs veh, AFF3 / RFU, LMF1 / Fold change vs veh, LMF1 / RFU, IPO11 / Fold change vs veh, IPO11 / RFU, DFFB / Fold change vs veh, DFFB / RFU, FOXP1 / Fold change vs veh, FOXP1 / RFU, CARD8 / Fold change vs veh, CARD8 / RFU, STRN3 / Fold change vs veh, STRN3 / RFU, ADK / Fold change vs veh, ADK / RFU, RASSF2 / Fold change vs veh, RASSF2 / RFU, WIPF1 / Fold change vs veh, WIPF1 / RFU, LARP1B / Fold change vs veh, LARP1B / RFU, RASA1 / Fold change vs veh, RASA1 / RFU, RB1 / Fold change vs veh, RB1 / RFU, PPFIA1 / Fold change vs veh, PPFIA1 / RFU, MAT2A / Fold change vs veh, MAT2A / RFU, CCT5 / Fold change vs veh, CCT5 / RFU, WDR92 / Fold change vs veh, WDR92 / RFU, CUX1 / Fold change vs veh, CUX1 / RFU, TTC7A / Fold change vs veh, TTC7A / RFU, TMEM135 / Fold change vs veh, TMEM135 / RFU, DEPTOR / Fold change vs veh, DEPTOR / RFU, CPM / Fold change vs veh, CPM / RFU, DNAJB6 / Fold change vs veh, DNAJB6 / RFU, CACNA2D3 / Fold change vs veh, CACNA2D3 / RFU, DTX4 / Fold change vs veh, DTX4 / RFU, TFCP2 / Fold change vs veh, TFCP2 / RFU, GMCL1 /// GMCL1P1 / Fold change vs veh, GMCL1 /// GMCL1P1 / RFU, AEBP2 / Fold change vs veh, AEBP2 / RFU, SNHG1 /// SNORD22 /// SNORD25 /// SNORD26 /// SNORD27 /// SNORD28 /// SNORD29 /// SNORD31 / Fold change vs veh, SNHG1 /// SNORD22 /// SNORD25 /// SNORD26 /// SNORD27 /// SNORD28 /// SNORD29 /// SNORD31 / Fold change (Aza/veh), C12orf56 (ProbeSet 11735607_a_at) / Fold change (ACY-1035/veh), C12orf56 (ProbeSet 11735607_a_at) / Fold change (Aza/veh), FGFR1OP (ProbeSet 11751329_s_at) / Fold change (ACY-1035/veh), FGFR1OP (ProbeSet 11751329_s_at) / Fold change (Aza/veh), VPS36 (ProbeSet 11739960_a_at) / Fold change (ACY-1035/veh), VPS36 (ProbeSet 11739960_a_at) / RFU SYPL1 (11715823_x_at) / Fold change /veh SYPL1 (11715823_x_at) / RFU IGFBP7 (11715501_s_at) / Fold change /veh IGFBP7 (11715501_s_at) / RFU REEP3 (11722064_at) / Fold change /veh REEP3 (11722064_at) / RFU IGLL1 (11728026_x_at) / Fold change /veh IGLL1 (11728026_x_at): dose or concentration left out as unconfirmed
Details: ProbeSet 11727641_at; LIST B

SMILES: Nc1ccc(-c2cccs2)cc1NC(=O)c1ccc2c(c1)cc(C1CC1)n2CCN1CCOCC1 [ACY-1035]
- Fold change vs veh, NOM1: 0.95
